# PubChem BioAssay (NCI)
#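 GI50 marks 50% less growth. The concentration for full growth arrest is given as TGI.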
# Legend:
# Test in all cases: NCI anticancer screen, dose series, 384-well format
# EKVX NSCLC = system: EKVX NSCLC
# U251 glioblastoma = system: U251 glioblastoma
# RXF 393 renal = system: RXF 393 renal
# SK-OV-3 ovarian = system: SK-OV-3 ovarian
# MOLT-4 leukemia = system: MOLT-4 leukemia
# CCRF-CEM leukemia = system: CCRF-CEM leukemia
# MALME-3M melanoma = system: MALME-3M melanoma
# NCI-H460 NSCLC = system: NCI-H460 NSCLC
# RPMI-8226 leukemia = system: RPMI-8226 leukemia
# HCT-116 colon = system: HCT-116 colon
# UACC-62 melanoma = system: UACC-62 melanoma
# HOP-92 NSCLC = system: HOP-92 NSCLC
# CAKI-1 renal = system: CAKI-1 renal
# LOX IMVI melanoma = system: LOX IMVI melanoma
# SW-620 colon = system: SW-620 colon
# UACC-257 melanoma = system: UACC-257 melanoma
# HCC-2998 colon = system: HCC-2998 colon
# ACHN renal = system: ACHN renal
# DU-145 prostate = system: DU-145 prostate
# HCT-15 colon = system: HCT-15 colon
# K-562 leukemia = system: K-562 leukemia
# NCI-H522 lung = system: NCI-H522 lung
# NCI-H23 lung = system: NCI-H23 lung
# HT29 colon = system: HT29 colon
# HL-60(TB) leukemia = system: HL-60(TB) leukemia
# MDA-MB-435 melanoma = system: MDA-MB-435 melanoma
# SNB-75 CNS = system: SNB-75 CNS
# M14 melanoma = system: M14 melanoma
smiles,measurement,setting,value
O=C1C=CC(Nc2ccccc2[N+](=O)[O-])C1Nc1ccccc1[N+](=O)[O-] (stereo not given),TGI,EKVX NSCLC,8070 nM
same,GI50,U251 glioblastoma,2110 nM
same,TGI,U251 glioblastoma,3780 nM
same,GI50,RXF 393 renal,1710 nM
same,TGI,RXF 393 renal,3110 nM
same,GI50,SK-OV-3 ovarian,4500 nM
same,TGI,SK-OV-3 ovarian,15900 nM
same,GI50,MOLT-4 leukemia,344 nM
same,TGI,MOLT-4 leukemia,1090 nM
same,GI50,CCRF-CEM leukemia,386 nM
same,TGI,CCRF-CEM leukemia,1350 nM
same,GI50,MALME-3M melanoma,2270 nM
same,TGI,MALME-3M melanoma,3740 nM
same,GI50,NCI-H460 NSCLC,> 100000 nM
same,TGI,NCI-H460 NSCLC,> 100000 nM
same,GI50,RPMI-8226 leukemia,222 nM
same,TGI,RPMI-8226 leukemia,410 nM
same,GI50,HCT-116 colon,1320 nM
same,TGI,HCT-116 colon,2640 nM
same,GI50,UACC-62 melanoma,1680 nM
same,TGI,UACC-62 melanoma,3100 nM
same,GI50,HOP-92 NSCLC,2000 nM
same,TGI,HOP-92 NSCLC,3570 nM
same,GI50,CAKI-1 renal,1290 nM
same,TGI,CAKI-1 renal,2580 nM
same,GI50,LOX IMVI melanoma,1840 nM
same,TGI,LOX IMVI melanoma,3470 nM
same,GI50,SW-620 colon,1730 nM
same,TGI,SW-620 colon,3150 nM
same,GI50,UACC-257 melanoma,1830 nM
same,TGI,UACC-257 melanoma,3230 nM
same,GI50,HCC-2998 colon,2050 nM
same,TGI,HCC-2998 colon,4780 nM
same,GI50,ACHN renal,1620 nM
same,TGI,ACHN renal,3010 nM
same,GI50,DU-145 prostate,4870 nM
same,TGI,DU-145 prostate,15700 nM
same,GI50,HCT-15 colon,1560 nM
same,TGI,HCT-15 colon,2940 nM
same,GI50,K-562 leukemia,4850 nM
same,TGI,K-562 leukemia,15000 nM
same,GI50,NCI-H522 lung,1390 nM
same,TGI,NCI-H522 lung,2690 nM
same,GI50,NCI-H23 lung,1980 nM
same,TGI,NCI-H23 lung,3620 nM
same,GI50,HT29 colon,1620 nM
same,TGI,HT29 colon,3150 nM
same,GI50,HL-60(TB) leukemia,148 nM
same,TGI,HL-60(TB) leukemia,281 nM
same,GI50,MDA-MB-435 melanoma,2400 nM
same,TGI,MDA-MB-435 melanoma,5280 nM
same,GI50,SNB-75 CNS,4160 nM
same,TGI,SNB-75 CNS,10100 nM
same,GI50,M14 melanoma,1710 nM
same,TGI,M14 melanoma,3160 nM
